Assay results reported in patent publication US10774071B2, “PD-1/PD-L1 inhibitors” (Gilead Sciences, Inc., priority 2018, dated 2020).
Read-outs that look alike come from different tables or passages of the source.

Columns and labels:
[1] = target: PD-1/PD-L1 (Homo sapiens (Human), UniProt Q9NZQ7); assay: PD-1/PD-L1 biochemical protein-protein interaction assay (ALPHA); type: binding; settings: read-out: IC50 PD-L1-PD1
Procedure: Compounds were tested in biochemical protein-protein interaction assays to determine if they can specifically block the interaction between the extracellular domains of PD-1/PD-L1 or CTLA/CD80. Binding of the protein pairs is measured using a bead based Amplified Luminescent Proximity Homogeneous Assay (ALPHA) platform. […] Final protein concentration in the assays were 0.3 nM (His tagged PD-L1), 2.5 nM (biotinylated Fc-PD-1), 1 nM (His tagged CTLA4) and 1 nM (biotinylated CD80).

[2] = target: PD-L1 (Homo sapiens (Human), UniProt Q9NZQ7); assay: PD-L1/PD-L1 dimerization biochemical protein-protein interaction assay (ALPHA); type: binding; settings: read-out: AC50 PDL1 Dimer 1 nM
[3] = 0.3 nM His tagged PD-L1, 2.5 nM biotinylated Fc-PD-1, Table 3B
[4] = 0.5 nM His tagged PD-L1 and 0.5 nM FLAG tagged PD-L1, Table 4B
[5] = 0.3 nM His tagged PD-L1, 2.5 nM biotinylated Fc-PD-1, readings of 0.064 nM are equal to or less than 0.064 nM
[6] = 0.5 nM His tagged PD-L1 and 0.5 nM FLAG tagged PD-L1, Table 4A

PD-1/PD-L1, sequence (Q9NZQ7 19-238): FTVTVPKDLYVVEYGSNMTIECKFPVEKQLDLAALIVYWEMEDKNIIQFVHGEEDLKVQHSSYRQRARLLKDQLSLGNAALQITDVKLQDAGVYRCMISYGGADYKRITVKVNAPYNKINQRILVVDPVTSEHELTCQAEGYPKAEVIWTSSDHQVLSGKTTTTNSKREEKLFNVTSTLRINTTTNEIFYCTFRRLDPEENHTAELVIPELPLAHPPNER
PD-L1, sequence (Q9NZQ7 19-238): as above
PD-L1, sequence (Q9NZQ7 19-238): as above

Structure (SMILES) | IC50 [1, 3] | AC50 [2, 4] | IC50 [1, 5] | AC50 [2, 6]
CNC(=O)C1CCN(Cc2cc(Cl)c(O[C@H]3CCc4c(-c5cccc(-c6cnc(CNC[C@@H]7CCC(=O)N7)c(OC)n6)c5Cl)cccc43)nc2OC)C1 (some centres unmarked) [B-28] | 0.088 nM | 26.9 nM | – | –
COc1nc(-c2cccc(-c3cccc4c3CC[C@@H]4Nc3nc(OC)c(CN4CCCC[C@@]4(C)C(=O)O)cc3C(F)(F)F)c2Cl)ccc1CN1CC(C)(O)C1 [A-52] | – | – | ≤ 0.064 nM | 15.3 nM
COc1cc(N[C@H]2CCc3c(-c4cccc(-c5ccc(CNC[C@@H]6CCC(=O)N6)c(OC)n5)c4Cl)cccc32)c(C(F)(F)F)nc1CNC1(C(=O)O)CC1 [A-37] | – | – | ≤ 0.064 nM | 6.26 nM
COc1nc(-c2cccc(-c3cccc4c3CC[C@@H]4Oc3nc(OC)c(CNCC(=O)N(C)C)cc3C(F)(F)F)c2Cl)ccc1CNC[C@@H]1CCC(=O)N1 [B-248] | 0.097 nM | 15.9 nM | – | –
COc1nc(-c2cccc(-c3cccc4c3CC[C@@H]4Nc3nc(OC)c(CN(C)[C@@H](C)C(=O)O)nc3C(F)(F)F)c2Cl)ccc1CNC[C@@H]1CCC(=O)N1 [A-96] | – | – | ≤ 0.064 nM | 3.97 nM
COc1nc(-c2cccc(-c3cccc4c3CC[C@@H]4Nc3nc(OC)c(CN[C@@H](C)C(=O)O)nc3C(F)(F)F)c2Cl)ccc1CN[C@H]1C[C@](C)(O)C1 [A-50] | – | – | ≤ 0.064 nM | 17.6 nM
COC[C@H](NCc1nc(C(F)(F)F)c(N[C@H]2CCc3c(-c4cccc(-c5ccc(CNC[C@@H]6CCC(=O)N6)c(OC)n5)c4Cl)cccc32)nc1OC)C(=O)O [A-100] | – | – | ≤ 0.064 nM | 7.11 nM
COc1nc(-c2cccc(-c3cccc4c3CC[C@@H]4Oc3nc(OC)c(CN4CC5(C(=O)O)CCC4CC5)cc3C(F)(F)F)c2Cl)ccc1CNC[C@H]1C[C@](C)(O)C1 [B-209] | 0.064 nM | 11.7 nM | – | –
COc1nc(-c2cccc(-c3cccc4c3CC[C@@H]4Oc3nc(OC)c(CN4CC(C(=O)O)C5(CCC5)C4)cc3Cl)c2Cl)ccc1CNC[C@@H]1CCC(=O)N1 (some centres unmarked) [B-71] | 0.064 nM | 35.7 nM | – | –
COc1nc(-c2cccc(-c3cccc4c3CC[C@@H]4Oc3nc(OC)c(CN4C5CCC4(C(=O)O)CC5)cc3C(F)(F)F)c2Cl)ccc1CNC[C@@H]1CCC(=O)N1 [B-232] | 0.064 nM | 1.79 nM | – | –
COc1nc(-c2cccc(-c3cccc4c3CC[C@@H]4Oc3nc(OC)c(CNC4(C(=O)O)CC4)cc3C(F)(F)F)c2Cl)ccc1CNC[C@@H]1CC(O)C(=O)N1 (some centres unmarked) [B-204] | 0.064 nM | 9.7 nM | – | –
COc1cc(N[C@H]2CCc3c(-c4cccc(-c5ccc(CNC[C@@H]6CCC(=O)N6)c(OC)n5)c4Cl)cccc32)c(Cl)cc1CN1CC2(C(=O)O)CCC1CC2 [A-13] | – | – | 0.065 nM | 48.8 nM
CCC1C(C(=O)O)CCN1Cc1cc(C(F)(F)F)c(N[C@H]2CCc3c(-c4cccc(-c5ccc(CNC[C@@H]6CCC(=O)N6)c(OC)n5)c4Cl)cccc32)nc1OC (some centres unmarked) [A-79] | – | – | ≤ 0.064 nM | 21.4 nM
COc1nc(O[C@H]2CCc3c(-c4cccc(-c5cnc(CNC[C@@H]6CCC(=O)N6)cn5)c4Cl)cccc32)c(Cl)cc1CN1CC(C(=O)O)C1 [B-96] | 0.064 nM | 48.7 nM | – | –
COc1nc(O[C@H]2CCc3c(-c4cccc(-c5cc(C)c(CNC[C@@H]6CCC(=O)N6)c(OC)n5)c4Cl)cccc32)c(C)cc1CNC(C)(C)C(=O)O [B-243] | 0.064 nM | 15.8 nM | – | –
COc1nc(O[C@H]2CCc3c(-c4cccc(-c5cc(F)c(CNC[C@@H]6CCC(=O)N6)c(OC)n5)c4Cl)cccc32)c(C(F)(F)F)cc1CN1CC[C@H](C(=O)O)C1 [B-188] | 0.064 nM | 12 nM | – | –
COc1nc(-c2cccc(-c3cccc4c3CC[C@@H]4Oc3nc(OC)c(CN4CC5CC5(C(=O)O)C4)cc3Cl)c2Cl)ccc1CNC[C@@H]1CCC(=O)N1 (some centres unmarked) [B-99] | 0.086 nM | 67.9 nM | – | –
COc1nc(-c2cccc(-c3cccc4c3CC[C@@H]4Oc3nc(OC)c(CN4C[C@@H]5C[C@]5(C(=O)O)C4)cc3Cl)c2Cl)ccc1CNC[C@@H]1CCC(=O)N1 [B-95] | 0.064 nM | 36.2 nM | – | –
CCC1C(C(=O)O)CCN1Cc1cc(Cl)c(O[C@H]2CCc3c(-c4cccc(-c5ccc(CNC[C@@H]6CCC(=O)N6)c(OC)n5)c4Cl)cccc32)nc1OC (some centres unmarked) [B-186] | 0.064 nM | 19.7 nM | – | –
COc1cc(-c2cccc(-c3cccc4c3CC[C@@H]4Oc3nc(OC)c(CNC4(C(=O)O)CC4)cc3C(F)(F)F)c2Cl)ccc1CNC[C@@H]1CCC(=O)N1 [B-122] | 0.064 nM | 2.65 nM | – | –
COc1nc(-c2cccc(-c3cccc4c3CC[C@@H]4Oc3nc(OC)c(CN4CCC[C@]4(C)C(=O)O)cc3C(F)(F)F)c2Cl)ccc1CNC[C@@H]1CCC(=O)N1 [B-8] | 0.064 nM | 13.2 nM | – | –
CC[C@H](NCc1cc(C(F)(F)F)c(O[C@H]2CCc3c(-c4cccc(-c5ccc(CN[C@H]6C[C@](C)(O)C6)c(OC)n5)c4Cl)cccc32)nc1OC)C(=O)O [B-211] | 0.064 nM | 9.21 nM | – | –
COc1nc(-c2cccc(-c3cccc4c3CC[C@@H]4Oc3nc(OC)c(CNCC(=O)O)cc3C(F)(F)F)c2Cl)ccc1CNC[C@H]1C[C@](C)(O)C1 [B-206] | 0.064 nM | 7.77 nM | – | –
COc1nc(-c2cccc(-c3cccc4c3CC[C@@H]4Nc3nc(OC)c(CNCC(=O)O)nc3C(F)(F)F)c2Cl)ccc1CN[C@@H]1CCCC[C@@H]1O [A-109] | – | – | ≤ 0.064 nM | 8.98 nM
COc1nc(-c2cccc(-c3cccc4c3CC[C@@H]4Oc3nc(OC)c(CN4CC(C(=O)O)C5(CC5)C4)cc3Cl)c2Cl)ccc1CNC[C@@H]1CCC(=O)N1 (some centres unmarked) [B-72] | 0.064 nM | 25.8 nM | – | –
COc1nc(-c2cccc(-c3cccc4c3CC[C@@H]4Oc3nc(OC)c(CN4CCCC[C@@]4(C)C(=O)O)cc3C(F)(F)F)c2Cl)ccc1CNC[C@@H]1CCC(=O)N1 [B-135] | 0.064 nM | 2.76 nM | – | –

The remaining lines, values ahead:

IC50 [1, 3] | AC50 [2, 4] | IC50 [1, 5] | AC50 [2, 6] | Structure (SMILES)
0.064 nM | 8.98 nM | – | – | COc1nc(-c2cccc(-c3cccc4c3CC[C@@H]4Oc3nc(OC)c(CN4CC5(CC5)C[C@H]4C(=O)O)cc3C(F)(F)F)c2Cl)ccc1CNC[C@@H]1CCC(=O)N1 [B-144]
0.064 nM | 26.9 nM | – | – | COc1nc(-c2cccc(-c3cccc4c3CC[C@@H]4Oc3nc(OC)c(CN4CCC(C(=O)N=S(C)(N)=O)CC4)cc3Cl)c2Cl)ccc1CNC[C@@H]1CCC(=O)N1 (some centres unmarked) [B-158]
0.064 nM | 49.7 nM | – | – | COc1nc(O[C@H]2CCc3c(-c4cccc(-c5cc(C)c(CN6CC(C)(O)C6)c(OC)n5)c4Cl)cccc32)c(Cl)cc1CN1CC[C@@H](C(=O)O)C1 [B-58]
0.064 nM | 11.6 nM | – | – | COc1nc(-c2cccc(-c3cccc4c3CC[C@@H]4Oc3nc(OC)c(CN4C[C@@H]5C[C@@H]5[C@H]4C(=O)O)cc3C(F)(F)F)c2Cl)ccc1CNC[C@@H]1CCC(=O)N1 [B-138]
0.064 nM | 6.19 nM | – | – | COc1nc(-c2cccc(-c3cccc4c3CC[C@@H]4Oc3nc(OC)c(CN4[C@H](C(=O)O)C[C@@H]5C[C@@H]54)cc3C(F)(F)F)c2Cl)ccc1CNC[C@@H]1CCC(=O)N1 [B-137]
0.064 nM | 17.7 nM | – | – | COc1nc(-c2cccc(-c3cccc4c3CC[C@@H]4Oc3nc(OC)c(CNCC4(C(=O)O)CC4)cc3C(F)(F)F)c2Cl)ccc1CN[C@H]1C[C@](C)(O)C1 [B-251]
0.064 nM | 24.9 nM | – | – | COc1nc(-c2cccc(-c3cccc4c3CC[C@@H]4Oc3nc(OC)c(CN4CC(C(=O)N=S(C)(=O)NC(C)=O)C4)cc3Cl)c2Cl)ccc1CNC[C@@H]1CCC(=O)N1 (some centres unmarked) [B-159]
0.064 nM | 20.1 nM | – | – | COc1nc(-c2cccc(-c3cc(F)cc4c3CC[C@@H]4Oc3nc(OC)c(CN4CC5(C(=O)O)CCC4CC5)cc3C(F)(F)F)c2Cl)ccc1CNC[C@@H]1CCC(=O)N1 [B-216]
0.064 nM | 10.2 nM | – | – | COc1nc(-c2cccc(-c3cccc4c3CC[C@@H]4Oc3nc(OC)c(CNC4(C(=O)O)CC5CCC4C5)cc3Cl)c2Cl)ccc1CNC[C@@H]1CCC(=O)N1 (some centres unmarked) [B-139]
0.064 nM | 2.67 nM | – | – | COc1nc(-c2cccc(-c3cccc4c3CC[C@@H]4Oc3nc(OC)c(CN4CCC[C@H]4C(=O)O)cc3C(F)(F)F)c2Cl)ccc1CNC[C@@H]1CCC(=O)N1 [B-5]
0.064 nM | 31.9 nM | – | – | COc1nc(-c2cccc(-c3cccc4c3CC[C@@H]4Oc3nc(OC)c(CN4CC(C(=O)O)C5(CCOC5)C4)cc3Cl)c2Cl)ccc1CNC[C@@H]1CCC(=O)N1 (some centres unmarked) [B-70]
0.064 nM | 31.1 nM | – | – | COc1nc(-c2cccc(-c3cccc4c3CC[C@@H]4Oc3nc(OC)c(CN4C[C@H]5[C@@H]([C@H]4C(=O)O)C5(C)C)cc3Cl)c2Cl)ccc1CNC[C@@H]1CCC(=O)N1 [B-182]
0.064 nM | 4.04 nM | – | – | COc1nc(-c2cccc(-c3cccc4c3CC[C@@H]4Oc3nc(OC)c(CN4CC[C@H](C)[C@H]4C(=O)O)cc3C(F)(F)F)c2Cl)ccc1CNC[C@@H]1CCC(=O)N1 [B-7]
0.064 nM | 7.55 nM | – | – | COc1nc(-c2cccc(-c3cccc4c3CC[C@@H]4Oc3nc(OC)c(CNCC(=O)O)cc3C(F)(F)F)c2Cl)ccc1CN[C@]1(C)C[C@@](C)(O)C1 [B-205]
0.064 nM | 9.3 nM | – | – | COc1nc(-c2cccc(-c3cccc4c3CC[C@@H]4Oc3nc(OC)c(CN4CC[C@@H](C(=O)O)C4)cc3C(F)(F)F)c2Cl)ccc1CNC[C@@H]1CCC(=O)N1 [B-62]
0.064 nM | 3.76 nM | – | – | COc1nc(-c2cccc(-c3cccc4c3CC[C@@H]4Oc3nc(OC)c(CN[C@H](C(=O)O)C4CC4)cc3C(F)(F)F)c2Cl)ccc1CNC[C@@H]1CCC(=O)N1 [B-268]
0.064 nM | 60.4 nM | – | – | COc1nc(-c2cccc(-c3cccc4c3CC[C@@H]4Oc3nc(OC)c(CN4CC5(C(=O)O)CCC4CC5)cc3Cl)c2C)ccc1CNC[C@@H]1CCC(=O)N1 [B-77]
